Results from patent US6630496B1, “Inhibitors of phospholipase enzymes” (Genetics Institute LLC, priority 1996, dated 2003).
pIC50: −log10 of the molar value. Several values for one entry are separate records, joined by “and”; a condition that tells them apart may be missing. Identical values can stand only once. Like-named read-outs stand apart in the source and are kept apart here. One block for each molecule: values may come before it.

Columns and labels:
cPLA2 [1] = biological target: T1, cPLA2 (Homo sapiens, UniProt P47712); test: Soluble substrate assay (LysoPC); type: biochemical; conditions: for IC50: NA = inhibitory activity not detected, read-out: IC50 (μM) Lyso PC
T1 sequence (P47712 1-749): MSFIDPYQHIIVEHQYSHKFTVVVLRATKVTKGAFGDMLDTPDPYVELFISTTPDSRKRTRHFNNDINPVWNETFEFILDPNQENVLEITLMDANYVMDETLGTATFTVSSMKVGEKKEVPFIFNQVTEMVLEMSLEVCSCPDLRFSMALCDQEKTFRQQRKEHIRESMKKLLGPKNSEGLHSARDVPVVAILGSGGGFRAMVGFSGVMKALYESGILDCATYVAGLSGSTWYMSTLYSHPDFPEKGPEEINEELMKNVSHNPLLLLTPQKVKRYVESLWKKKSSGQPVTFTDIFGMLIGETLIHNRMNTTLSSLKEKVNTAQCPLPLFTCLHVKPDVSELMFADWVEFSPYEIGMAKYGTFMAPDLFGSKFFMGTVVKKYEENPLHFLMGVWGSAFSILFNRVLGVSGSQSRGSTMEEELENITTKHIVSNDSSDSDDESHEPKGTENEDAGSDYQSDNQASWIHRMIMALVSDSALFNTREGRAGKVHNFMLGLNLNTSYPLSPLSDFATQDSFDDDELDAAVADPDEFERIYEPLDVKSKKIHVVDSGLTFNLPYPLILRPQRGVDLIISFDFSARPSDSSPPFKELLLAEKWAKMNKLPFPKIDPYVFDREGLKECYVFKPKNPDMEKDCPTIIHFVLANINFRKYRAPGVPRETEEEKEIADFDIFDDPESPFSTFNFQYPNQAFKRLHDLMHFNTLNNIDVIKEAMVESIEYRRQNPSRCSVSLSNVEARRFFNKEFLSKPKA
Description: (b) Soluble Substrate Assay (LysoPC)
(§1) The lipid was resuspended by vortexing 80 mM Hepes pH 7.5, 1 mM EDTA (1.2×final concentration). A typical assay consisted of lipid suspension (85 μl) to which was added consecutively the inhibitor (5 μl in DMSO) and cPLA2, 200 ng in 80 mM Hepes pH 7.5, 2 mM DTT and […]. This assay was conducted by either the manual assay or automated assay protocol described below.

cPLA2 [2] = biological target: T1, cPLA2; test: Coumarine assay (7-hydroxycoumarinyl 6-heptenoate hydrolysis); type: biochemical; conditions: for IC50: 60 μM 7-hydroxycoumarinyl 6-heptenoate, read-out: IC50 (μM) Coumarine
Description: (§2) 7-hydroxycoumarinyl 6-heptenoate was used as a monomeric substrate for cPLA2 as reported previously (Huang, Z. et al., 1994, Analytical Biochemistry 222, 110-115). Inhibitors were mixed with 200 μL assay buffer (80 mM Hepes, pH 7.5, 1 mM EDTA) containing 60 μM 7-hydroxycoumarinyl 6-heptenoate. The reaction was initiated by adding 4 μg cPLA2 in 50 μL assay buffer. Hydrolysis of the 7-hydroxycoumarinyl 6-heptenoate ester was monitored in a fluorometer by exciting at 360 nm and monitoring emission at 460 nm. Enzyme activity is proportional to the increasein emission at 460 nm per minute. In the presence of a cPLA2 inhibitor, the rate of increase is less.

[3] = system: carrageenan-induced footpad edema; test: Rat carrageenan-induced footpad edema test; type: in vivo; conditions: iv, read-out: % inhibition of rat carrageenan-induced footpad edema
Description: Compounds of the present invention were also tested for in vivo activity in a rat paw edema test according to the procedure described in Example 89.
Rat Carrageenan-Induced Footpad Edema Test
Each compound was suspended in 0.3 ml absolute ethanol, 0.1 ml Tween-80 and 2.0 ml Dulbecco's PBS (without calcium or magnesium). To this mixture, 0.1 ml 1N NaOH was added. After solution was complete, additional amounts of PBS were added to adjust the concentration to 1 mg/ml. All comounds remained in solution. Compounds were administered i.v. in a volumne of 5 ml/kg to male Sprague Dawley rats at the same time that edema was induced by injection of 0.05 ml of 1% Type IV carrageenan into the hind footpad. Footpad volume was measured before dosing with compound and 3 hours after dosing with carageenan.

cPLA2 [4] = biological target: T1, cPLA2; test: Activity assay of Example 136 (Table VIII; sub-assay not stated); type: biochemical; conditions: for pIC50: concentration paired with 50 percent inhibition, read-out: CONCENTRATION (micromolar) @ PERCENT INHIBITION 50
Description: Activity data for the compounds of Examples 88-135 are reported in Table VIII (assay described in Example 136).
1-palmitoyl-2-V^14C] arachidonyl phosphotidylcholine (58 mCi/mmol) (final concentration 6 μM) and 1,2-dioleyolglycerol (final concentration 3 μM) were mixed and dried under a stream of nitrogen. To the lipids was added 50 mM Hepes pH 7.5 (2×final concentration of lipids) and the suspension was sonicated for 3 min. at 4° C. To the suspension was added 50 mM Hepes pH 7.5, 300 mM NaCl, 2 mM DTT, 2 mM CaCl2 and 2 mg/ml bovine serum albumin (BSA) (Sigma A7511) (1.2×final concentration of lipids). A typical assay consisted of the lipid mixture (85 μl) to which was added consecutively, the inhibitor (5 μl in DMSO) and cPLA2, 10 ng for an automated system or 1 ng for a manual assay, in 10 μl of the BSA buffer. This assay was conducted by either the manual assay or automated assay protocol described below.
as §1, with “1-[^14C]-palmitoyl-2-hydroxyphosphotidyl-choline (57 mCi/mmol) (final concentration 4.4 μM) was dried under a stream of nitrogen. The” for “The”
RBL-2H3 cells were routinely cultured as 37° C. in a 5% CO2 atmosphere in minimal essential medium containing nonessential amino acids and 12% fetal calf serum. The day before the experiment, cells were seeded into spinner flasks at 3×10^5 cells/ml and 100 ng/ml DNP specific-IgE was added. After 20 hrs, the cells were harvested by centrifugation and washed once in serum-free minimal essential media, and resuspended to 2×10^6 cells/ml in serum free media. The cells were then preincubated with either inhibitor in DMSO (1% v/v) or DMSO (1% v/v) for 15 min at 37° C. followed by stimulation with DNP-BSA (300 ng/ml). After 6 min, the cells were removed by centrifugation, and the supernatant was assayed for PGD2 content in accordance with known methods.
as §2

[5] = 1 mg/ml, 5 ml/kg, male Sprague Dawley rats, footpad volume 3 hours after carrageenan

- IC50 (cPLA2 [2]): 4.5 µM
Structure (SMILES): O=C(O)c1ccccc1SCC1Cc2cc(OCc3ccccc3)ccc2N1Cc1ccc2ccccc2c1 (stereo not shown) [Example 76]
- inhibition in vivo at 1000 µg/mL, 5 mg/kg [3, 5]: 8.2%

- IC50 (cPLA2 [2]): 2.5 µM
Structure (SMILES): O=C(O)c1ccccc1SCC1Cc2cc(OCc3ccccc3)ccc2N1Cc1ccc(COc2cc(C(F)(F)F)cc(C(F)(F)F)c2)cc1 (stereo not shown) [Example 77]
- inhibition in vivo at 1000 µg/mL, 5 mg/kg [3, 5]: 13%

- PERCENT INHIBITION @ CONCENTRATION 12.5 micromolar (cPLA2 [4]; 12.5 micromolar): 55%
- pIC50 (cPLA2 [4]): 4.90
Structure (SMILES): O=C1NC(=O)/C(=C\c2cc3cc(OCc4ccccc4)ccc3n2Cc2ccc(Cc3ccccc3)cc2)S1 [Example 93, 5-{(E)-[1-(4-Benzylbenzyl)-5-(benzyloxy)-1H-indol-2-yl]methylidene}-1,3-thiazolane-2,4-dione]

- pIC50 (cPLA2 [4]): 5.30
Structure (SMILES): O=C(O)CN1C(=O)S/C(=C/c2cc3cc(OCc4ccccc4)ccc3n2Cc2ccc(COc3cc(C(F)(F)F)cc(C(F)(F)F)c3)cc2)C1=O [Example 96, 2-(5-{(E)-[5-(Benzyloxy)-1-(4-{[3,5-bis(trifluoromethyl)phenoxy]methyl}benzyl)-1H-indol-2-yl]methylidene}-2,4-dioxo-1,3-thiazolan-3-yl)acetic Acid]

- pIC50 (cPLA2 [4]): 5.35
Structure (SMILES): O=C(O)c1ccc(CN2C(=O)S/C(=C/c3cc4cc(OCc5ccccc5)ccc4n3Cc3ccc(Cl)cc3)C2=O)cc1 [Example 97, 4-[(5-{(E)-[5-(Benzyloxy)-1-(4-chlorobenzyl)-1H-indol-2yl]methylidene}2,4-dioxo-1,3-thiazolan-3-yl)methyl]benzoic Acid]

- pIC50 (cPLA2 [4]): 5.00
Structure (SMILES): O=C1NC(=S)S/C1=C/c1cc2cc(OCc3ccccc3)ccc2n1Cc1ccc(C(F)(F)F)cc1C(F)(F)F [Example 101, 5-((E)-{5-(Benzyloxy)-1-[2,4-bis(trifluoromethyl)benzyl]-1H-indol-2-yl}methylidene)-2-thioxo-1,3-thiazolan-4-one]

- pIC50 (cPLA2 [4]): 5.42
Structure (SMILES): O=C(O)c1ccc(CN2C(=O)/C(=C\c3cc4cc(OCc5ccccc5)ccc4n3Cc3ccc(C(F)(F)F)cc3C(F)(F)F)SC2=S)cc1 [Example 107, 4-{[5-((E)-{5-(Benzyloxy)-1-[2,4-bis(trifluoromethyl)benzyl]-1H-indol-2-yl}methylidene)-4-oxo-2-thioxo-1,3-thiazolan-3-yl]methyl}benzoic Acid]

- pIC50 (cPLA2 [4]): 4.30
Structure (SMILES): O=C(O)c1cc2cc(-c3cc4ccccc4o3)ccc2n1Cc1ccccc1 [Example 110, 5-(1-Benzofuran-2-yl)-1-benzyl-1H-indole-2-carboxylic Acid]

- pIC50 (cPLA2 [4]): 4.89
Structure (SMILES): O=C(O)c1cc2cc(-c3ccc(F)cc3)ccc2n1Cc1ccccc1 [Example 111, 1-Benzyl-5-(4-fluorophenyl)-1H-indole-2-carboxylic Acid]

- PERCENT INHIBITION @ CONCENTRATION 25 micromolar (cPLA2 [4]; 25 micromolar): 32%
- PERCENT INHIBITION @ CONCENTRATION 50 micromolar (cPLA2 [4]): 46%
Structure (SMILES): COc1cccc(-c2ccc3c(c2)cc(C(=O)O)n3Cc2ccccc2)c1 [Example 112, 1-Benzyl-5-(3-methoxyphenyl)-1H-indole-2-carboxylic Acid]

- pIC50 (cPLA2 [4]): 3.77
Structure (SMILES): O=C(O)c1cc2cc(-c3ccccc3)ccc2n1Cc1ccccc1 [Example 113, 1-Benzyl-5-phenyl-1H-indole-2-carboxylic Acid]

- PERCENT INHIBITION @ CONCENTRATION 50 micromolar (cPLA2 [4]): 31% and 25%
Structure (SMILES): O=C(O)c1cc(NC(=O)c2cc3cc(OCc4ccccc4)ccc3n2Cc2ccccc2)cc(C(=O)O)c1 [Example 123, 5-({[1-Benzyl-5-(benzyloxy)-1H-indol-2-yl]carbonyl}amino)isophthalic Acid]

- pIC50 (cPLA2 [4]): 4.64
Structure (SMILES): O=C(O)/C=C/c1cc2cc(OCc3ccccc3)ccc2n1Cc1ccc(C(F)(F)F)cc1C(F)(F)F [Example 125]

The next lines start with the molecule.

Structure (SMILES): O=C(O)c1cccc(NC(=O)c2cc3cc(OCc4ccccc4)ccc3n2Cc2ccc(COc3cc(C(F)(F)F)cc(C(F)(F)F)c3)cc2)c1 [Example 8]
- pIC50 (cPLA2 [1]): 6.96
- pIC50 (cPLA2 [2]): 5.42
- inhibition in vivo at 1000 µg/mL, 5 mg/kg ([3]; 3 h): 29%

Structure (SMILES): O=C(O)c1cc(NC(=O)c2cc3cc(OCc4ccccc4)ccc3n2Cc2ccc(C(F)(F)F)cc2C(F)(F)F)ccc1Oc1ccc(Cl)nc1 [Example 10]
- pIC50 (cPLA2 [1]): 6.48
- pIC50 (cPLA2 [2]): 4.55
- inhibition in vivo at 1000 µg/mL, 5 mg/kg ([3]; 3 h): 8.9%

Structure (SMILES): CCC(C)(C)c1ccc(OCC(=O)N2c3ccc(OCc4ccccc4)cc3CC2CSCC(=O)Nc2cccc(C(=O)O)c2)c(C(C)(C)CC)c1 (stereo not shown) [Example 17, 3-(2-(-5-Benzyloxy-1-(2,4-bis(1,1-dimethy)propyl)phenoxyacetyl)indolinyl)methylthioacetamidobenzoic Acid]
- IC50 (cPLA2 [1]): 0.32 µM
- IC50 (cPLA2 [2]): 6 µM
- inhibition in vivo at 1000 µg/mL, 5 mg/kg [3, 5]: 29.3%

Structure (SMILES): CS(=O)(=O)NC(=O)C1Cc2ccccc2N1Cc1ccc(C(F)(F)F)cc1C(F)(F)F (stereo not shown) [Example 84, N-Methylsulfonyl-2-(1-(2,4-bis(trifluoromethyl)benzyl)indolinyl)carboxamide]
- IC50 (cPLA2 [1]): 23 µM
- IC50 (cPLA2 [2]): > 50 µM

Structure (SMILES): O=C(NS(=O)(=O)c1ccccc1)C1Cc2ccccc2N1Cc1ccc(C(F)(F)F)cc1C(F)(F)F (stereo not shown) [Example 85]
- IC50 (cPLA2 [1]): 21 µM
- IC50 (cPLA2 [2]): > 50 µM

Structure (SMILES): O=C(O)c1ccc(CN2C(=O)S/C(=C/c3cc4cc(OCc5ccccc5)ccc4n3Cc3ccc(COc4cc(C(F)(F)F)cc(C(F)(F)F)c4)cc3)C2=O)cc1 [Example 88, 4-[(5-{(E)[5-(Benzyloxy)-1-(4-{[3,5-bis(trifluoromethyl)phenoxyl]methyl}benzyl)-1H-indol-2-yl]methylidene}-2,4-dioxo-1,3-thiazolan-3-yl)methyl]benzoic Acid]
- pIC50 (cPLA2 [4]): 5.52

Structure (SMILES): CC(=O)c1c(CSCC(=O)O)n(Cc2ccc(C(=O)c3nc4ccccc4s3)cc2)c2ccc(OCc3ccccc3)cc12 [Example 133]
- pIC50 (cPLA2 [4]): 5.07

Structure (SMILES): CC(=O)c1c(CSc2ccccc2C(=O)O)n(Cc2ccc(C(=O)c3nc4ccccc4s3)cc2)c2ccc(OCc3ccccc3)cc12 [Example 134]
- pIC50 (cPLA2 [4]): 5.46

Structure (SMILES): CC(=O)c1c(COc2ccc(C(=O)O)cc2)n(Cc2ccc(C(=O)c3nc4ccccc4s3)cc2)c2ccc(OCc3ccccc3)cc12 [Example 135]
- pIC50 (cPLA2 [4]): 5.05
